This note sets out measurements from patent US9120749B2, “Quinoline derivatives and MELK inhibitors containing the same” (ONCOTHERAPY SCIENCE, INC., priority 2010, dated 2015).

One assay deals with T47D cells. Nature of the assay: Cell-based assay: anti-proliferative activity, Cell Counting Kit-8, 72 hours (T47D). As to conditions: Homo sapiens, T47D, 72 h. Here is the method: (§1) To evaluate the expression status of MELK in several cell lines, western blot analysis was performed using crude cell lysate collected from those cells. Anti-MELK antibody (clone 31, BD Biosciences) was used to visualize the expression.
(§2) Active candidate inhibitors against MELK were evaluated for their target-specific cytotoxicity using T47D, A549, BT-549, and HT-1197 cells was used for negative control. 100 micro-L of cell suspension was seeded onto 96-well microtiter plate (ViewPlate-96FTC, PerkinElmer). The initial cell concentration of T47D, A549, BT-549, and HT-1197 were 3,000 cells/well, 2,000 cells/well and 2,500 cells/well, respectively. Cellular growth was determined using Cell Counting Kit-8 (DOJINDO) at 72 hours after the exposure of the candidate inhibitors. […] Accurate IC50 values were calculated as described previously.
In general terms: Formazan colour is commonly taken as a measure of viable cells.

A further assay has as its system A549 cells. In words: Cell-based assay: anti-proliferative activity, Cell Counting Kit-8, 72 hours (A549). Conditions: Homo sapiens, A549, 72 h, 72 hours. Here is the method: 100 micro-L of cell suspension was seeded onto 96-well microtiter plate (ViewPlate-96FTC, PerkinElmer). The initial cell concentration of T47D, A549, BT-549, and HT-1197 were 3,000 cells/well, 2,000 cells/well and 2,500 cells/well, respectively. Cellular growth was determined using Cell Counting Kit-8 (DOJINDO) at 72 hours after the exposure of the candidate inhibitors. […] Accurate IC50 values were calculated as described previously.

The subject of the next assay is HT-1197 cells. In words: Cell-based assay: anti-proliferative activity, Cell Counting Kit-8, 72 hours (HT-1197, negative control without MELK expression). Conditions: Homo sapiens, HT1197, 72 h, HT1197 cells (negative control, no MELK expression), 72 hours. Here is the method: as §1, §2
The target of another assay is MELK (Homo sapiens, UniProt Q14680). In words: Kinase assay: MELK activity, phosphorylation of FITC-labeled histone H3 peptide measured by IMAP fluorescence polarization. The assay is classed as biochemical. As to conditions: 50 micro-M ATP, FITC-labeled histone H3 peptide substrate, IMAP fluorescence polarization; read-out: IC50 (μM) (kinase assay). The gist of the method: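 Compounds, serially diluted from 12.5 mM DMSO stocks to 1% final DMSO, were tested with FITC-labeled histone H3 peptide as substrate. The reaction was stopped with progressive binding solution. Fluorescence polarization was read after 0.5 hour at room temperature.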
Chain of MELK (Q14680 whole entry, looked up): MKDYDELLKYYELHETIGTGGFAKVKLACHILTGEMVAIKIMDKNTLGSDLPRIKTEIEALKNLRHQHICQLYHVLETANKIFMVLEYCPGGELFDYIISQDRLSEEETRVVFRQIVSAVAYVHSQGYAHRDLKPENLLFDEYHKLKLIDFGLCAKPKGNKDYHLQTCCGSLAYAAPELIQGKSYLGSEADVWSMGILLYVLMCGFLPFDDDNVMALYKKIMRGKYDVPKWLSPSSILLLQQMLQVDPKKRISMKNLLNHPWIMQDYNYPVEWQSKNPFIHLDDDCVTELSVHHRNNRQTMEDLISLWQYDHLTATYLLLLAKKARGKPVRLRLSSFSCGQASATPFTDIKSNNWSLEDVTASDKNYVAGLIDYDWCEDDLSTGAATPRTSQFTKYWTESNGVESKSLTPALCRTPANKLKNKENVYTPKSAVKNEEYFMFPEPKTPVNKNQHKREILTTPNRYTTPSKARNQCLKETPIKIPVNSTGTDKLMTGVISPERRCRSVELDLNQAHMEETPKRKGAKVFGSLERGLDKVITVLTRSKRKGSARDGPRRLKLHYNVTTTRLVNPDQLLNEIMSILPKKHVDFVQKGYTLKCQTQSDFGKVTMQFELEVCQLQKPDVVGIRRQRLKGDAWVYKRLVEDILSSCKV

As usually defined, the IC50 is the concentration that inhibits the measured activity by half. With `CN1CCCC1c1ccc(Nc2c(C(=O)C3CC3)cnc3ccc(-c4cc(F)c(O)c(Cl)c4)cc23)nc1` (stereo not drawn) [Example 443], the IC50 in the assay on T47D cells came to 7.1 µM; in the assay on A549 cells, 6.6 µM; in the assay with HT-1197 cells, 10 µM; at MELK, 0.043 µM.
The matching figures for `CN(C)CC1CCN(c2c(C(=O)C3CCCC3)cnc3ccc(-c4ccc(O)c(Cl)c4)cc23)CC1` [Example 389, (6-(3-chloro-4-hydroxyphenyl)-4-(4-((dimethylamino)methyl)piperidin-1-yl)quinolin-3-yl)(cyclopentyl)methanone]: 2.9 µM, 1.7 µM, 6.9 µM and 0.031 µM.
Consider `CC(=O)c1cnc2ccc(-c3cnc(C#N)nc3)cc2c1Nc1ccc(CN2CCCC2)cc1` [Example 413, 5-(3-acetyl-4-(4-(pyrrolidin-1-ylmethyl)phenylamino)quinolin-6-yl)pyrimidine-2-carbonitrile], for which the IC50 with T47D cells was 0.35 µM; in the assay with A549 cells, 1.7 µM; in the assay with HT-1197 cells, 1.2 µM; at MELK, 0.0029 µM.
With `CN(C)CC1CCN(c2c(C(=O)C3CC3)cnc3ccc(-c4ccc(O)c(C(F)(F)F)c4)cc23)CC1` [Example 454], the IC50 turned out to be 4 µM in the assay on T47D cells, 1.3 µM in the assay on A549 cells, 5.3 µM in the assay with HT-1197 cells and 0.014 µM on MELK.
The matching figures for `CS(=O)(=O)c1cnc2ccc(-c3cc(F)c(O)c(Cl)c3)cc2c1N1CCC(CN2CCCC2)CC1` [Example 407, 2-chloro-6-fluoro-4-(3-(methylsulfonyl)-4-(4-(pyrrolidin-1-ylmethyl)piperidin-1-yl)quinolin-6-yl)phenol]: 0.75 µM, 3.8 µM, 6.5 µM and 0.0051 µM.
The matching figures for `COc1cc(-c2ccc3ncc(C(=O)C4CC4)c(-c4ccc(CN5CCCC5)cc4)c3c2)cc(Cl)c1O` [Example 436, (6-(3-chloro-4-hydroxy-5-methoxyphenyl)-4-(4-(pyrrolidin-1-ylmethyl)phenyl)quinolin-3-yl)(cyclopropyl)methanone]: 0.63 µM, 0.63 µM, 4.9 µM and 0.014 µM.
For `CN(C)Cc1ccc(Nc2c(C(=O)C3CCCC3)cnc3ccc(-c4ccc(O)c(Cl)c4)cc23)cc1` [Example 387, (6-(3-chloro-4-hydroxyphenyl)-4-(4-((dimethylamino)methyl)phenylamino)quinolin-3-yl)(cyclopentyl)methanone], the IC50 in the assay on T47D cells was determined as 1.6 µM; with A549 cells, 1 µM; with HT-1197 cells, 1.9 µM; at MELK, 0.089 µM.
The matching figures for `CS(=O)(=O)c1cnc2ccc(-c3ccc(O)c(Cl)c3)cc2c1N1CCC(CN2CCCC2)CC1` [Example 408, 2-chloro-4-(3-(methylsulfonyl)-4-(4-(pyrrolidin-1-ylmethyl)piperidin-1-yl)quinolin-6-yl)phenol]: 8.2 µM, 3.2 µM, 9.5 µM and 0.009 µM.
`O=C(c1cnc2ccc(-c3ccc(O)c(Cl)c3)cc2c1N1CCN(CCN2CCCC2)CC1)C1CC1` [Example 403, (6-(3-chloro-4-hydroxyphenyl)-4-(4-(2-(pyrrolidin-1-yl)ethyl)piperazin-1-yl)quinolin-3-yl)(cyclopropyl)methanone]: the IC50 came to 4.5 µM in the assay with T47D cells, 1.3 µM with A549 cells, 10 µM with HT-1197 cells and 0.011 µM on MELK.
The matching figures for `CCN(CC)C1CCC(Nc2c(C(=O)C3CCCC3)cnc3ccc(-c4ccc(O)c(Cl)c4)cc23)CC1` (stereo not drawn) [Example 385, (6-(3-chloro-4-hydroxyphenyl)-4-(4-(diethylamino)cyclohexylamino)quinolin-3-yl)(cyclopentyl)methanone]: 1.7 µM, 0.94 µM, 1.9 µM and 0.019 µM.
The matching figures for `CN(C)Cc1ccc(Nc2c(C#N)cnc3ccc(-c4cc(F)c(O)c(Cl)c4)cc23)cc1` [Example 432, 6-(3-chloro-5-fluoro-4-hydroxyphenyl)-4-(4-((dimethylamino)methyl)phenylamino)quinoline-3-carbonitrile]: 0.98 µM, 1.1 µM, 4.9 µM and 0.056 µM.
The matching figures for `CN(C)C[C@H]1CC[C@H](Nc2c(S(C)(=O)=O)cnc3ccc(-c4ccc(O)c(Cl)c4)cc23)CC1` [Example 424]: 0.43 µM, 0.79 µM, 1.1 µM and 0.013 µM.
`CN(C)CC1CCN(c2c(C(=O)C3CC3)cnc3ccc(-c4ccc5[nH]ccc5c4)cc23)CC1` [Example 453]: the IC50 in the assay on T47D cells came to 1.2 µM; with A549 cells, 0.48 µM; in the assay with HT-1197 cells, 2.3 µM; at MELK, 0.094 µM.
For the molecule `N#Cc1cnc2ccc(-c3ccc(O)c(Cl)c3)cc2c1N1CCC(CN2CCCC2)CC1` [Example 433, 6-(3-chloro-4-hydroxyphenyl)-4-(4-(pyrrolidin-1-ylmethyl)piperidin-1-yl)quinoline-3-carbonitrile], the IC50 in the assay with T47D cells worked out at 0.54 µM; in the assay with A549 cells, 0.7 µM; in the assay with HT-1197 cells, 3.7 µM; at MELK it was 0.043 µM.
The matching figures for `CN(C)C[C@H]1CC[C@H](Nc2c(C(=O)C3CC3)cnc3ccc(-c4cnc(C#N)nc4)cc23)CC1` [Example 426]: 0.43 µM, 1.5 µM, 3.7 µM and 0.0025 µM.
The matching figures for `CN(C)Cc1ccc(Nc2c(C(=O)C3CC3)cnc3ccc(-c4cc(F)c(O)c(Cl)c4)cc23)nc1` [Example 435, (6-(3-chloro-5-fluoro-4-hydroxyphenyl)-4-(5-((dimethylamino)methyl)pyridin-2-ylamino)quinolin-3-yl)(cyclopropyl)methanone]: 2.7 µM, 2.8 µM, 12 µM and 0.049 µM.
The matching figures for `CN(C)Cc1ccc(Nc2c(S(C)(=O)=O)cnc3ccc(-c4ccc(O)c(Cl)c4)cc23)cc1` [Example 411, 2-chloro-4-(4-(4-((dimethylamino)methyl)phenylamino)-3-(methylsulfonyl)quinolin-6-yl)phenol]: 0.29 µM, 0.37 µM, 0.63 µM and 0.0091 µM.
Consider `CN(C)CC(=O)N1CCN(c2c(C(=O)C3CC3)cnc3ccc(-c4cc(F)c(O)c(Cl)c4)cc23)CC1` [Example 442, 1-(4-(6-(3-chloro-5-fluoro-4-hydroxyphenyl)-3-(cyclopropanecarbonyl)quinolin-4-yl)piperazin-1-yl)-2-(dimethylamino)ethanone], for which the IC50 is 0.74 µM in the assay with T47D cells, 1.5 µM in the assay on A549 cells, 5.5 µM in the assay with HT-1197 cells and 0.0035 µM at MELK.
The matching figures for `CN1CCCC1c1ccc(Nc2c(C(=O)C3CC3)cnc3ccc(-c4cc(Cl)c(O)c(Cl)c4)cc23)nc1` (stereo not drawn) [Example 445]: 7.5 µM, 4.1 µM, 10 µM and 0.022 µM.
The matching figures for `CN(C)CCNC(=O)c1ccc(-c2c(C(=O)C3CC3)cnc3ccc(-c4cc(Cl)c(O)c(Cl)c4)cc23)cc1` [Example 451]: 0.68 µM, 3.8 µM, 17 µM and 0.0025 µM.
The matching figures for `COc1cc(-c2ccc3ncc(S(C)(=O)=O)c(N[C@H]4CC[C@H](CN(C)C)CC4)c3c2)cc(Cl)c1O` [Example 422]: 0.7 µM, 0.65 µM, 4.4 µM and 0.0041 µM.
Regarding `CN(C)Cc1ccc(Nc2c(C(=O)C3CC3)cnc3ccc(-c4cc(Cl)c(O)c(Cl)c4)cc23)nc1` [Example 417, cyclopropyl(6-(3,5-dichloro-4-hydroxyphenyl)-4-(5-((dimethylamino)methyl)pyridin-2-ylamino)quinolin-3-yl)methanone], the IC50 amounted to 1.7 µM in the assay with T47D cells, 1.8 µM with A549 cells, 22 µM in the assay on HT-1197 cells and 0.0099 µM on MELK.
The matching figures for `CN(C)[C@H]1CC[C@H](Nc2c(C#N)cnc3ccc(-c4cc(F)c(O)c(Cl)c4)cc23)CC1` [Example 446]: 0.61 µM, 8.4 µM, 10 µM and 0.0027 µM.
The matching figures for `COc1cc(-c2ccc3ncc(C(C)=O)c(Nc4ccc(CN(C)C)cc4)c3c2)cc(Cl)c1O` [Example 391, 1-(6-(3-chloro-4-hydroxy-5-methoxyphenyl)-4-(4-((dimethylamino)methyl)phenylamino)quinolin-3-yl)ethanone]: 0.12 µM, 1 µM, 4.2 µM and 0.0037 µM.
